Measured values: PubChem BioAssay AID330 (DTP/NCI, 2004)
Toxic doses and inconclusive results are not listed. How the source made its calls: active means survival T/C of 150% or more; inactive means T/C below 125% in these data.

Tested on: P388 leukemia ip, CD2F1 mice, survival T/C
Test: NCI In Vivo Anticancer Drug Screen. Data for tumor model P388 Leukemia (intraperitoneal) in CD2F1 (CDF1) mice
Details: endpoint: median survival time, higher = longer survival
Summary of the method: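 Mice carrying the transplanted tumor received test compound or vehicle. Survival was recorded in each group, and the value is the treated-group measurement divided by that of the vehicle-treated control group.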

[1] = dose: 60.0 mg/kg/injection, schedule: Q01DX005 (ip), vehicle: saline with Tween-80
[2] = dose: 120.0 mg/kg/injection, schedule: Q01DX005 (ip), vehicle: saline with Tween-80
[3] = dose: 240.0 mg/kg/injection, schedule: Q01DX005 (ip), vehicle: saline with Tween-80
[4] = dose: 12.5 mg/kg/injection, schedule: Q01DX009 (ip), vehicle: saline
[5] = dose: 25.0 mg/kg/injection, schedule: Q01DX009 (ip), vehicle: saline
[6] = dose: 50.0 mg/kg/injection, schedule: Q01DX009 (ip), vehicle: saline with Tween-80
[7] = dose: 100.0 mg/kg/injection, schedule: Q01DX009 (ip), vehicle: saline with Tween-80
[8] = dose: 200.0 mg/kg/injection, schedule: Q01DX009 (ip), vehicle: saline with Tween-80

Measured: T/C

CCCCCCCCCCCCCCCC[N+](C)(CCO)Cc1cnc[nH]1 (stereo unspecified)
inactive: dose: 1.56 mg/kg/injection, schedule: Q01DX009 (ip), vehicle: saline 110 % of control | dose: 3.12 mg/kg/injection, schedule: Q01DX009 (ip), vehicle: saline 111 % of control | dose: 6.25 mg/kg/injection, schedule: Q01DX009 (ip), vehicle: saline 118 % of control

Nc1nnc(Cc2ccc(Cl)cc2)o1
inactive: [1] 95 % of control | [2] 105 % of control | [3] 105 % of control

CCOC(=O)OC(C#N)(c1ccc([N+](=O)[O-])cc1)c1nccc2ccccc12 (stereo unspecified)
inactive: [4] 93 % of control | [5] 97 % of control | dose: 50.0 mg/kg/injection, schedule: Q01DX009 (ip), vehicle: suspension in saline 87 % of control

COC(=O)/C(=C/C=C(c1ccccc1)c1ccccc1)N(C(C)=O)C(C)=O
inactive: dose: 100.0 mg/kg/injection, schedule: Q01DX001 (ip), vehicle: saline with Tween-80 104 % of control | dose: 200.0 mg/kg/injection, schedule: Q01DX001 (ip), vehicle: saline with Tween-80 104 % of control | dose: 400.0 mg/kg/injection, schedule: Q01DX001 (ip), vehicle: saline with Tween-80 96 % of control

COC(=O)c1cc2c(nn1)C(=O)Nc1ccccc1C2(C)C
inactive: [1] 100 % of control | [2] 105 % of control | [3] 96 % of control

CCCOC(=O)C1C2CCC(O2)C1C(=O)O (stereo unspecified)
inactive: dose: 6.25 mg/kg/injection, schedule: Q01DX005 (ip), vehicle: saline 106 % of control | dose: 12.5 mg/kg/injection, schedule: Q01DX005 (ip), vehicle: saline 103 % of control

O=C(c1cccc(C(=O)N2CCCC2)n1)N1CCCC1
inactive: dose: 60.0 mg/kg/injection, schedule: Q01DX005 (ip), vehicle: saline 102 % of control | dose: 120.0 mg/kg/injection, schedule: Q01DX005 (ip), vehicle: saline 102 % of control | dose: 240.0 mg/kg/injection, schedule: Q01DX005 (ip), vehicle: saline 109 % of control

O=C1C[C@]2(CC3CO3)C[C@@H](C=CC23OCCO3)O1 (stereo partly specified)
inactive: dose: 1.5 mg/kg/injection, schedule: Q01DX005 (ip), vehicle: acid diluted with saline 99 % of control | dose: 3.0 mg/kg/injection, schedule: Q01DX005 (ip), vehicle: acid diluted with saline 102 % of control | dose: 6.0 mg/kg/injection, schedule: Q01DX005 (ip), vehicle: acid diluted with saline 102 % of control | dose: 12.0 mg/kg/injection, schedule: Q01DX005 (ip), vehicle: acid diluted with saline 107 % of control

NCCSCCO
inactive: dose: 50.0 mg/kg/injection, schedule: Q01DX005 (ip), vehicle: saline 98 % of control | dose: 100.0 mg/kg/injection, schedule: Q01DX005 (ip), vehicle: saline 100 % of control | dose: 200.0 mg/kg/injection, schedule: Q01DX005 (ip), vehicle: saline 99 % of control

CCOC(=O)C(CC(C)C(C)=O)C(=O)OCC (stereo unspecified)
inactive: dose: 12.5 mg/kg/injection, schedule: Q01DX009 (ip), vehicle: other 93 % of control | dose: 25.0 mg/kg/injection, schedule: Q01DX009 (ip), vehicle: other 90 % of control | dose: 50.0 mg/kg/injection, schedule: Q01DX009 (ip), vehicle: other 94 % of control | dose: 100.0 mg/kg/injection, schedule: Q01DX009 (ip), vehicle: other 97 % of control | dose: 200.0 mg/kg/injection, schedule: Q01DX009 (ip), vehicle: other 103 % of control

COc1cc[c]([Pb]([O]C(C)=O)([O]C(C)=O)[O]C(C)=O)cc1
inactive: dose: 100.0 mg/kg/injection, schedule: Q04DX003 (ip), vehicle: saline with Tween-80 103 % of control | dose: 200.0 mg/kg/injection, schedule: Q04DX003 (ip), vehicle: saline with Tween-80 103 % of control | dose: 400.0 mg/kg/injection, schedule: Q04DX003 (ip), vehicle: saline with Tween-80 111 % of control

c1cc2cc3c(cc2o1)OC[C@H]1c2cc4c(cc2O[C@@H]31)OCO4
inactive: dose: 100.0 mg/kg/injection, schedule: Q01DX001 (ip), vehicle: Klucel (hydroxypropylcellulose) (HPC) 91 % of control | dose: 200.0 mg/kg/injection, schedule: Q01DX001 (ip), vehicle: Klucel (hydroxypropylcellulose) (HPC) 87 % of control

CCCCCCCCCCCCCCCCS(=O)(=O)c1ccc(S(=O)(=O)F)cc1NC(C)=O
inactive: dose: 50.0 mg/kg/injection, schedule: Q04DX003 (ip), vehicle: saline sonified 104 % of control | dose: 100.0 mg/kg/injection, schedule: Q04DX003 (ip), vehicle: saline sonified 95 % of control | dose: 200.0 mg/kg/injection, schedule: Q04DX003 (ip), vehicle: saline sonified 100 % of control

ClC(Cl)Oc1ccccc1
inactive: dose: 10.0 mg/kg/injection, schedule: Q01DX009 (ip), vehicle: saline with Tween-80 97 % of control | dose: 20.0 mg/kg/injection, schedule: Q01DX009 (ip), vehicle: saline with Tween-80 106 % of control | dose: 40.0 mg/kg/injection, schedule: Q01DX009 (ip), vehicle: saline with Tween-80 103 % of control

Cc1ccc(NC(=O)Oc2ccc(Cl)cc2)c([N+](=O)[O-])c1
inactive: [6] 109 % of control | [7] 100 % of control | [8] 105 % of control

NC1=NS(=O)(=O)Nc2nonc21
inactive: [6] 96 % of control | [7] 89 % of control | [8] 89 % of control

NC(CS)C(=O)O.[Cl-].[Cl-].[Cl-].[Cl-].[Pt+2] (stereo unspecified)
inactive: [4] 104 % of control | [5] 95 % of control | dose: 50.0 mg/kg/injection, schedule: Q01DX009 (ip), vehicle: saline 95 % of control | dose: 100.0 mg/kg/injection, schedule: Q01DX009 (ip), vehicle: saline 99 % of control | dose: 200.0 mg/kg/injection, schedule: Q01DX009 (ip), vehicle: saline 95 % of control

CC1OC(n2cc(F)c(=O)[nH]c2=O)CC1O (stereo unspecified)
inactive: dose: 50.0 mg/kg/injection, schedule: Q01DX001 (ip), vehicle: saline 104 % of control | dose: 100.0 mg/kg/injection, schedule: Q01DX001 (ip), vehicle: saline 106 % of control | dose: 200.0 mg/kg/injection, schedule: Q01DX001 (ip), vehicle: saline 105 % of control

C[N+](C)(C)c1ccc(Cc2ccc([N+](C)(C)C)cc2)cc1
inactive: dose: 6.3 micrograms/kg/injection, schedule: Q04DX002 (ip), vehicle: saline 107 % of control | dose: 12.5 micrograms/kg/injection, schedule: Q04DX002 (ip), vehicle: saline 111 % of control | dose: 25.0 micrograms/kg/injection, schedule: Q04DX002 (ip), vehicle: saline 103 % of control

CC(C)C[C@H](O)C(=O)O
inactive: dose: 50.0 mg/kg/injection, schedule: Q04DX003 (ip), vehicle: saline 100 % of control | dose: 100.0 mg/kg/injection, schedule: Q04DX003 (ip), vehicle: saline 100 % of control | dose: 200.0 mg/kg/injection, schedule: Q04DX003 (ip), vehicle: saline 100 % of control

O=[As]O
inactive: dose: 0.5 mg/kg/injection, schedule: Q01DX010 (ip), vehicle: saline with Tween-80 100 % of control | dose: 1.0 mg/kg/injection, schedule: Q01DX010 (ip), vehicle: saline with Tween-80 109 % of control | dose: 2.0 mg/kg/injection, schedule: Q01DX010 (ip), vehicle: saline with Tween-80 109 % of control

O=C1NN=C(c2ccccc2)CS1
inactive: [6] 98 % of control | [7] 101 % of control

C=CCN1C(=O)c2cc(Cl)c(Cl)cc2C1=O
inactive: dose: 50.0 mg/kg/injection, schedule: Q01DX005 (ip), vehicle: saline with Tween-80 102 % of control | dose: 100.0 mg/kg/injection, schedule: Q01DX005 (ip), vehicle: saline with Tween-80 87 % of control | dose: 200.0 mg/kg/injection, schedule: Q01DX005 (ip), vehicle: saline with Tween-80 94 % of control
